# Where two headings read alike, the source gives them in different places.
# What was measured:
# Format in all cases: cell-based
# [1] = system: latent HIV-1-infected ACH-2 cells; assay: HIV reactivation from latent cells: supernatant p24 antigen; conditions: ACH-2 cells; for viral production (supernatant p24 antigen levels): day 2, single drug (Figure 1A)
# Procedure: (§1) The reactivation of HIV-1 from latently infected cells was determined by the measurement of supernatant p24 antigen and intracellular HIV-1 RNA levels. ACH-2 cells or U1 cells (5 × 10^5 cells/mL) were placed in 96-well plates, and then the cells were incubated with different concentrations of drugs for 24 h to extract RNA and for 48 h to collect the supernatant. The increase in supernatant p24 antigen levels was measured using […] G1200 (Fujirebio, Tokyo, Japan). The total RNA was extracted using an RNeasy Mini Kit (Qiagen, Hilden, Germany), following the manufacturer’s protocols. The cDNA was synthesized using PrimeScript RT Master Mix (Takara Bio, Shiga, Japan), and quantitative real-time PCR analyses for the intracellular HIV-1 RNA were carried out with PowerUp^TM SYBR Green Master Mix (Applied Biosystems, Foster City, CA, United States). The oligonucleotide primers used were as follows: 5′-[…]-3′ (forward) and 5′-[…]-3′ (reverse) for HIV-RNA detection; 5′-[…]-3′ (forward) and 5′-[…]-3′ (reverse) for β-actin. The HIV-RNA expressions were normalized with that of β-actin, which was indicated as the relative quantity, and the increase in HIV-1 RNA levels in the presence of a drug was compared with that without a drug.
# (§2) FIGURE 1 (A,B) The increase in viral production from ACH-2 cells (A) and U1 cells (B) was examined by supernatant p24 antigen levels on day 2. (C,D) Changes in the intracellular HIV-1 mRNA levels due to treatment with these drugs in ACH-2 cells (C) and U1 cells (D) after 24 h of incubation.
# FIGURE 2 (A) Effect of birinapant when combined with TNF-α. The supernatant p24 levels with birinapant (1∼100 nM) in ACH-2 cell culture on day 2 are shown in white bars, and p24 values with birinapant when combined with TNF-α (10 ng/ml) are shown in black bars. (B) HIV-1 production from ACH-2 cells when reactivated by PEP005 (0.05∼50 nM) for 24 h. (C) Changes in the living cell numbers in the presence of drug(s) on days 1, 3, and 5.
# [2] = Cytotoxicity assay (Cytotoxicity LDH Assay Kit); conditions: human
# Procedure: (§3) To determine the cytotoxicity induced by LRAs and its related compounds, cells (5 × 10^5 cells/mL) were cultured in the presence or absence of LRA. After 24 h, cytotoxicity assays were performed using a Cytotoxicity LDH Assay Kit (Dojindo, Kumamoto, Japan) according to the manufacturer’s instructions. The number of living cells with the drug was measured and compared with those without the drug, and data are shown as percentage (%) of control.
# [3] = system: latent HIV-1-infected U1 cells; assay: HIV reactivation from latent cells: supernatant p24 antigen; conditions: day 2, single drug (Figure 1B)
# Procedure: as §1, §2
# HIV-1 NL4-3 = assay: Antiviral assay, HIV-1 NL4-3 in MT-4 cells; conditions: MT-4 cells, cultured for 12 days, single drug
# Procedure: as §3, with “Antiviral assays using wild type HIV-1 (HIV-1 NL4-3) cells and MT-4 cells were conducted as previously described ([Maeda et al., 2014]; [Takamatsu et al., 2015]). To” for “To”
# Supplementary file Data_Sheet_1.PDF: FIGURE S1 The combined effect of an RT inhibitor (EFdA/MK-8591) ([Nakata et al., 2007]; [Kawamoto et al., 2008]; [Maeda et al., 2014]) and PKC activator (PEP005) on the replication of HIV-1 NL4-3 in MT-4 cells. MT-4 cells were infected with HIV-1 NL4-3 in the presence or absence of drug(s), cultured for 12 days, and the supernatant p24 levels were measured. Click here for additional data file.
# cIAP = assay: Determination of cIAP expression (western blotting); conditions: ACH-2 cells, 24 h; birinapant 50 nM, PEP005 5 nM, TNF-α 10 ng/ml
# Procedure: ACH-2 cells (1 × 10^6 cells/ml) were treated with different concentrations of the drug for 24 h, and the cells were washed twice with PBS. Cells were homogenized by CelLytic M Cell Lysis Reagent (Sigma-Aldrich, St. Louis, MO, United States) containing a protease inhibitor cocktail (Nacalai Tesque, Kyoto, Japan) and were incubated at room temperature (RT) for 15 min. The cells were then centrifuged at 13,000 rpm for 15 min, and the supernatant of the whole cell lysate was collected. The bicinchoninic acid (BCA) protein assay (Thermo Scientific, Rockford, IL, United States) was used to measure the actual protein amount in the treated and untreated cells. The protein extracts were separated through sodium dodecyl sulfate polyacrylamide gel electrophoresis (SDS-PAGE) and then were blotted onto a Trans Blot Turbo polyvinylidene difluoride (PVDF) membrane (Bio-Rad, Hercules, CA, United States). Protein bands were visualized using 3,3′,5,5′-tetramethylbenzidine (TMB) solution (Wako Pure Chemical). The sources of the antibodies were as follows: c-IAP1 (D5G9), c-IAP2 (58C7), and XIAP (3B6) were purchased from Cell Signaling Technology (Danvers, MA, United States); β-actin (C4) was purchased from Santa Cruz Biotechnology.
# Supplementary file Data_Sheet_5.PDF: FIGURE S5 Western blotting (WB) analysis for IAP family proteins in ACH-2 cells. Cells were exposed to birinapant (50 nM) in the presence or absence of PEP005 (5 nM), with TNF-α (10 ng/ml) co-treatment for 24 h, and cell lysates were used for WB analysis. Click here for additional data file.
# U937 = assay: Cytotoxicity assay (Cytotoxicity LDH Assay Kit); conditions: U937 cells, 24 h; read-out: CC50 ± SD against U937
# Procedure: as §3
# ACH-2 = assay: Cytotoxicity assay (Cytotoxicity LDH Assay Kit); conditions: ACH-2 cells, 24 h; read-out: CC50 ± SD against ACH-2
# Procedure: as §3
# U1 = assay: Cytotoxicity assay (Cytotoxicity LDH Assay Kit); conditions: U1 cells, 24 h; read-out: CC50 ± SD against U1
# Procedure: as §3
# Jurkat = assay: Cytotoxicity assay (Cytotoxicity LDH Assay Kit); conditions: Jurkat cells, 24 h; read-out: CC50 ± SD against Jurkat
# Procedure: as §3
# J1.1 = assay: Cytotoxicity assay (Cytotoxicity LDH Assay Kit); conditions: J1.1 cells, 24 h; read-out: CC50 ± SD against J1.1
# Procedure: as §3
# A3.01 = assay: Cytotoxicity assay (Cytotoxicity LDH Assay Kit); conditions: A3.01 cells, 24 h; read-out: CC50 ± SD against A3.01
# Procedure: as §3
# HL-60 = assay: Cytotoxicity assay (Cytotoxicity LDH Assay Kit); conditions: HL-60 cells, 24 h; read-out: CC50 ± SD against HL-60
# Procedure: as §3
# OM10.1 = assay: Cytotoxicity assay (Cytotoxicity LDH Assay Kit); conditions: OM10.1 cells, 24 h; read-out: CC50 ± SD against OM10.1
# Procedure: as §3
# [4] = A3.01 cells, read-out: CC50 ± SD against A3.01
# [5] = ACH-2 cells, read-out: CC50 ± SD against ACH-2
# [6] = HL-60 cells, read-out: CC50 ± SD against HL-60
# [7] = J1.1 cells, read-out: CC50 ± SD against J1.1
# [8] = Jurkat cells, read-out: CC50 ± SD against Jurkat
# [9] = OM10.1 cells, read-out: CC50 ± SD against OM10.1
# [10] = U1 cells, read-out: CC50 ± SD against U1
# [11] = U937 cells, read-out: CC50 ± SD against U937
compound,measurement,setting,value
O=C(CCCCCCC(=O)Nc1ccccc1)NO [SAHA],viral production (supernatant p24 antigen levels),[1],increased viral production
same,CC50 at 24 h,[2]; [4],> 100 µM
same,CC50 at 24 h,[2]; [5],9 ± 1.2 µM
same,CC50 at 24 h,[2]; [6],> 100 µM
same,CC50 at 24 h,[2]; [7],> 100 µM
same,CC50 at 24 h,[2]; [8],90 ± 2 µM
same,CC50 at 24 h,[2]; [9],> 100 µM
same,CC50 at 24 h,[2]; [10],> 100 µM
same,CC50 at 24 h,[2]; [11],> 100 µM
same,viral production (supernatant p24 antigen levels),[3],increased viral production
"C#C[C@]1(CO)O[C@@H](n2cnc3c(N)nc(F)nc32)C[C@@H]1O [EFdA/MK-8591, 4′-ethynyl-2-fluoro-2′-deoxyadenosine]",replication of HIV-1 NL4-3 (supernatant p24),HIV-1 NL4-3,potently inhibited the replication
CCNC(=O)C[C@@H]1N=C(c2ccc(Cl)cc2)c2cc(OC)ccc2-n2c(C)nnc21 [GSK525762A],viral production (supernatant p24 antigen levels),[1],increased viral production
same,viral production (supernatant p24 antigen levels),[3],increased viral production
TNF-α,increase of supernatant HIV-1 (p24) levels compared with unstimulated cells,"[1]; TNF-α 10 ng/ml, day 2 (Figure 2A)",> 20 fold
same,supernatant HIV-1 p24 levels,"[1]; after 24 h, PEP005 5 nM and higher (Figure 2B)",reactivated and increased the supernatant HIV-1 p24 levels
same,cIAP expression (western blotting),cIAP,upregulation of cIAP-1 (and cIAP-2)
FC(F)(F)Oc1ccc2nc(-c3ccc(OCCOCCOc4ccc(-c5nc6ccc(OC(F)(F)F)cc6[nH]5)nc4)cn3)[nH]c2c1 [AI-10-49],viral production (supernatant p24 antigen levels),[1],failed to increase the p24 levels
same,CC50,U937,> 100 µM
same,CC50,ACH-2,41 ± 10 µM
same,CC50,U1,> 100 µM
same,CC50,Jurkat,1.1 ± 0.07 µM
same,CC50,J1.1,> 100 µM
same,CC50,A3.01,> 100 µM
same,CC50,HL-60,> 100 µM
same,CC50,OM10.1,> 100 µM
same,viral production (supernatant p24 antigen levels),[3],failed to increase the p24 levels
Cc1sc2c(c1C)C(c1ccc(Cl)cc1)=N[C@@H](CC(=O)OC(C)(C)C)c1nnc(C)n1-2 [JQ-1],viral production (supernatant p24 antigen levels),[1],increased viral production
same,viral production (supernatant p24 antigen levels),[3],increased viral production
Ro5-3335,viral production (supernatant p24 antigen levels),[1],failed to increase the p24 levels
same,CC50,U937,> 100 µM
same,CC50,ACH-2,> 100 µM
same,CC50,U1,> 100 µM
same,CC50,Jurkat,> 100 µM
same,CC50,J1.1,> 100 µM
same,CC50,A3.01,> 100 µM
same,CC50,HL-60,> 100 µM
same,CC50,OM10.1,> 100 µM
same,viral production (supernatant p24 antigen levels),[3],failed to increase the p24 levels
CCCCOc1nc(N)c2c(n1)N(Cc1cccc(CN3CCCC3)c1)CC(=O)N2 [GS-9620],viral production (supernatant p24 antigen levels),[1],failed to increase the p24 levels
same,CC50 at 24 h,[2]; [4],> 100 µM
same,CC50 at 24 h,[2]; [5],> 100 µM
same,CC50 at 24 h,[2]; [6],> 100 µM
same,CC50 at 24 h,[2]; [7],35 ± 1.3 µM
same,CC50 at 24 h,[2]; [8],23 ± 0.3 µM
same,CC50 at 24 h,[2]; [9],> 100 µM
same,CC50 at 24 h,[2]; [10],> 100 µM
same,CC50 at 24 h,[2]; [11],> 100 µM
same,viral production (supernatant p24 antigen levels),[3],failed to increase the p24 levels

# Reference: PMC6156138, “Combination of a Latency-Reversing Agent With a Smac Mimetic Minimizes Secondary HIV-1 Infection in vitro” (Frontiers in Microbiology, 2018)
